What is called pEC50 is the negative decadic logarithm of the EC50, by convention in mol/L.

Molecules are shown by their SMILES. pEC50: −log10 of the molar value.

The results in this text go back to patent US11505558B1, “Antiviral heterocyclic compounds” (Enanta Pharmaceuticals, Inc., priority 2019, dated 2022).

The subject of the test is genotype A, "Long" strain RSV. The test can be described thus: RSV-A assay (CPE, ATPlite readout in Hep-2 cells). The format is cell-based. Particulars: human respiratory syncytial virus, HEp-2, Hep-2 cells, genotype A "Long" strain RSV, MOI 0.1; read-out: Human RSV-A (“Long” strain) EC50. In a few lines:
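Protection from RSV-induced cytopathic effect, measured as ATPlite luminescence after 5 days, gave EC50 values. Assay used genotype A Long strain at MOI 0.1 on Hep-2 cells seeded at 8,000/well in DMEM growth media with 10% FBS; compounds tested as 2-fold dilutions in duplicate.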
Turning to `C[C@]1(C(N)=O)COc2c1cc([C@@](O)(CNC(=O)c1cc(C#N)c3ncccc3c1)C(F)(F)F)nc2-c1ccc(F)cc1` [Example 274], the negative logarithm of the EC50 (pEC50) is > 6.70. As for `CNC(=O)[C@@]1(C)COc2c1cc([C@@](O)(CNC(=O)c1cc(OCC(N)=O)c3ncccc3c1)C(F)(F)F)nc2-c1ccc(F)cc1` [Example 276], the figure is > 6.70; as for `C[C@]1(C(N)=O)COc2c1cc([C@@](O)(CNC(=O)c1cc(OCCF)c3ncccc3c1)C(F)(F)F)nc2-c1ccc(F)cc1` [Example 277], > 6.70. With `C[C@]1(C(N)=O)COc2c1cc([C@@](O)(CNC(=O)c1cc(OC(F)(F)F)c3ncccc3c1)C(F)(F)F)nc2-c1ccc(F)cc1` [Example 278], the negative-log EC50 (pEC50) was > 6.70. As for `C[C@]1(C(N)=O)COc2c1cc([C@@](O)(CNC(=O)c1cc(N)c3ncccc3c1)C(F)(F)F)nc2-c1ccc(F)cc1` [Example 279], the figure is > 6.70; as for `C[C@]1(C(N)=O)COc2c1cc([C@@](O)(CNC(=O)c1cc(OC3CC3)c3ncccc3c1)C(F)(F)F)nc2-c1ccc(Cl)c(F)c1` [Example 282], > 6.70; as for `Cc1ccc(-c2nc([C@@](O)(CNC(=O)c3cc(OC4CC4)c4ncccc4c3)C(F)(F)F)cc3c2OC[C@]3(C)C(N)=O)cc1` [Example 283], > 6.70. The value for `CNC(=O)[C@@]1(C)COc2c1cc([C@@](O)(CNC(=O)c1cc(NC(N)=O)c3ncccc3c1)C(F)(F)F)nc2-c1ccc(F)cc1` [Example 284] was > 6.70; that for `C[C@]1(C(N)=O)COc2c1cc([C@@](O)(CNC(=O)c1cc(OCC(F)F)c3ncccc3c1)C(F)(F)F)nc2-c1ccc(F)cc1` [Example 285] was > 6.70. For the compound `CO[C@@H](C)COc1cc(C(=O)NC[C@](O)(c2cc3c(c(-c4ccc(F)cc4)n2)OC[C@]3(C)C(N)=O)C(F)(F)F)cc2cccnc12` [Example 286], the pEC50 was < 6.70. As for `C[C@]1(C(N)=O)COc2c1cc([C@@](O)(CNC(=O)c1ccc3nc[nH]c3c1)C(F)(F)F)nc2-c1ccc(F)cc1` [Example 291], the negative-log EC50 (pEC50) is > 6.70.

As for `C[C@]1(C(N)=O)COc2c1cc([C@@](O)(CNC(=O)c1cc3cncnc3[nH]1)C(F)(F)F)nc2-c1ccc(F)cc1` [Example 292], the pEC50 was < 6.70. As for `C[C@]1(C(N)=O)COc2c1cc([C@@](O)(CNC(=O)c1n[nH]c3ccncc13)C(F)(F)F)nc2-c1ccc(F)cc1` [Example 293], the figure is < 6.70.

As for `C[C@]1(C(N)=O)COc2c1cc([C@@](O)(CNC(=O)c1ccc(F)c(OC3CC3)c1)C(F)(F)F)nc2-c1ccc(F)cc1` [Example 294], the pEC50 was > 6.70. In the case of `C[C@]1(C(N)=O)COc2c1cc([C@@](O)(CNC(=O)c1cc(C(N)=O)ccn1)C(F)(F)F)nc2-c1ccc(F)cc1` [Example 295], the negative logarithm of the EC50 (pEC50) was < 6.70. The value for `C[C@]1(C(N)=O)COc2c1cc([C@@](O)(CNC(=O)c1cncc(C(N)=O)c1)C(F)(F)F)nc2-c1ccc(F)cc1` [Example 296] was < 6.70. The value for `CCOc1ccc2[nH]c(C(=O)NC[C@](O)(c3cc4c(c(-c5ccc(F)cc5)n3)OC[C@]4(C)C(N)=O)C(F)(F)F)cc2c1` [Example 297] was < 6.70; that for `C[C@]1(C(N)=O)COc2c1cc([C@@](O)(CNC(=O)c1cncnc1)C(F)(F)F)nc2-c1ccc(F)cc1` [Example 298] was < 6.70. Turning to `C[C@]1(C(N)=O)COc2c1cc([C@@](O)(CNC(=O)c1cnccn1)C(F)(F)F)nc2-c1ccc(F)cc1` [Example 299], the pEC50 is < 6.70. Take `Cn1ncc2ccc(C(=O)NC[C@](O)(c3cc4c(c(-c5ccc(F)cc5)n3)OC[C@]4(C)C(N)=O)C(F)(F)F)cc21` [Example 300]: the negative logarithm of the EC50 (pEC50) was > 6.70. `C[C@]1(C(N)=O)COc2c1cc([C@@](O)(CNC(=O)c1ccnc(C(F)(F)F)n1)C(F)(F)F)nc2-c1ccc(F)cc1` [Example 301]: the pEC50 is < 6.70. For `C[C@]1(C(N)=O)COc2c1cc([C@@](O)(CNC(=O)c1nc3cccnc3[nH]1)C(F)(F)F)nc2-c1ccc(F)cc1` [Example 302], the pEC50 is < 6.70.

Regarding `C[C@]1(C(N)=O)COc2c1cc([C@@](O)(CNC(=O)c1cc3cccnc3[nH]1)C(F)(F)F)nc2-c1ccc(F)cc1` [Example 303], the negative-log EC50 (pEC50) is > 6.70.

For `COc1ccc2cc(C(=O)NC[C@](O)(c3cc4c(c(-c5ccc(F)cc5)n3)OC[C@]4(C)C(N)=O)C(F)(F)F)[nH]c2c1` [Example 304], the negative logarithm of the EC50 (pEC50) is > 6.70.

In the case of `COc1cncc(C(=O)NC[C@](O)(c2cc3c(c(-c4ccc(F)cc4)n2)OC[C@]3(C)C(N)=O)C(F)(F)F)c1` [Example 305], the negative logarithm of the EC50 (pEC50) was < 6.70.

As for `C[C@]1(C(N)=O)COc2c1cc([C@@](O)(CNC(=O)c1ccc3cc[nH]c3n1)C(F)(F)F)nc2-c1ccc(F)cc1` [Example 306], the negative-log EC50 (pEC50) was < 6.70. The value for `C[C@]1(C(N)=O)COc2c1cc([C@@](O)(CNC(=O)c1cn3ncccc3n1)C(F)(F)F)nc2-c1ccc(F)cc1` [Example 307] was < 6.70; that for `C[C@]1(C(N)=O)COc2c1cc([C@@](O)(CNC(=O)c1ccccc1)C(F)(F)F)nc2-c1ccc(F)cc1` [Example 308] was < 6.70; that for `COc1cccc(C(=O)NC[C@](O)(c2cc3c(c(-c4ccc(F)cc4)n2)OC[C@]3(C)C(N)=O)C(F)(F)F)c1` [Example 309] was < 6.70. As for `COc1cc(C(=O)NC[C@](O)(c2cc3c(c(-c4ccc(F)cc4)n2)OC[C@]3(C)C(N)=O)C(F)(F)F)ccc1O` [Example 310], the figure is > 6.70; as for `C[C@]1(C(N)=O)COc2c1cc([C@@](O)(CNC(=O)c1ccc3[nH]ccc3c1)C(F)(F)F)nc2-c1ccc(F)cc1` [Example 311], > 6.70; as for `COc1nc2ccc(C(=O)NC[C@](O)(c3cc4c(c(-c5ccc(F)cc5)n3)OC[C@]4(C)C(N)=O)C(F)(F)F)cc2s1` [Example 312], > 6.70.

Turning to `C[C@]1(C(N)=O)COc2c1cc([C@@](O)(CNC(=O)c1ccc3c(c1)NC(=O)CO3)C(F)(F)F)nc2-c1ccc(F)cc1` [Example 313], the pEC50 was < 6.70. In the case of `C[C@]1(C(N)=O)COc2c1cc([C@@](O)(CNC(=O)c1ccc3nc(C(F)(F)F)sc3c1)C(F)(F)F)nc2-c1ccc(F)cc1` [Example 314], the pEC50 is > 6.70. The value for `Cn1nnc2cc(C(=O)NC[C@](O)(c3cc4c(c(-c5ccc(F)cc5)n3)OC[C@]4(C)C(N)=O)C(F)(F)F)ccc21` [Example 315] was < 6.70. As for `COc1cc(C(=O)NC[C@](O)(c2cc3c(c(-c4ccc(F)cc4)n2)OC[C@]3(C)C(N)=O)C(F)(F)F)ccc1F` [Example 316], the figure is < 6.70. With `COc1cc(C(=O)NC[C@](O)(c2cc3c(c(-c4ccc(F)cc4)n2)OC[C@@]3(C)C(N)=O)C(F)(F)F)ccc1OCCF` [Example 317], the pEC50 is < 6.70. The value for `COc1cc(C(=O)NC[C@](O)(c2cc3c(c(-c4ccc(F)cc4)n2)OC[C@]3(C)C(N)=O)C(F)(F)F)ccc1C#N` [Example 318] was < 6.70; that for `COc1ccc(C(=O)NC[C@](O)(c2cc3c(c(-c4ccc(F)cc4)n2)OC[C@]3(C)C(N)=O)C(F)(F)F)cc1C#N` [Example 319] was > 6.70. `C[C@]1(C(N)=O)COc2c1cc([C@@](O)(CNC(=O)c1ccc(C#N)c(F)c1)C(F)(F)F)nc2-c1ccc(F)cc1` [Example 320]: the negative-log EC50 (pEC50) is < 6.70. On to `C[C@]1(C(N)=O)COc2c1cc([C@@](O)(CNC(=O)c1ccc3[nH]c(=O)[nH]c3c1)C(F)(F)F)nc2-c1ccc(F)cc1` [Example 321], for which the negative-log EC50 (pEC50) was < 6.70.

Turning to `Cn1c(=O)n(C)c2cc(C(=O)NC[C@](O)(c3cc4c(c(-c5ccc(F)cc5)n3)OC[C@]4(C)C(N)=O)C(F)(F)F)ccc21` [Example 322], the pEC50 is < 6.70.

Consider `C[C@]1(C(N)=O)COc2c1cc([C@@](O)(CNC(=O)c1ccc3oc(=O)[nH]c3c1)C(F)(F)F)nc2-c1ccc(F)cc1` [Example 323], for which the pEC50 is < 6.70. Regarding `C[C@]1(C(N)=O)COc2c1cc([C@@](O)(CNC(=O)c1ccc(F)c(C#N)c1)C(F)(F)F)nc2-c1ccc(F)cc1` [Example 324], the negative logarithm of the EC50 (pEC50) is < 6.70. In the case of `Cn1c(=O)[nH]c2cc(C(=O)NC[C@](O)(c3cc4c(c(-c5ccc(F)cc5)n3)OC[C@]4(C)C(N)=O)C(F)(F)F)ccc21` [Example 325], the negative logarithm of the EC50 (pEC50) was < 6.70.

As to `Cn1c(=O)[nH]c2ccc(C(=O)NC[C@](O)(c3cc4c(c(-c5ccc(F)cc5)n3)OC[C@]4(C)C(N)=O)C(F)(F)F)cc21` [Example 326], the negative logarithm of the EC50 (pEC50) was < 6.70. The value for `C[C@]1(C(N)=O)COc2c1cc([C@@](O)(CNC(=O)c1ccc3ncc(=O)[nH]c3c1)C(F)(F)F)nc2-c1ccc(F)cc1` [Example 327] was < 6.70. As for `Cn1c(=O)oc2ccc(C(=O)NC[C@](O)(c3cc4c(c(-c5ccc(F)cc5)n3)OC[C@]4(C)C(N)=O)C(F)(F)F)cc21` [Example 328], the figure is < 6.70; as for `COc1cc(C(=O)NC[C@](O)(C2=CC3C(OC[C@]3(C)C(N)=O)C(c3ccc(F)cc3)=N2)C(F)(F)F)ccc1Cl` (stereo partly drawn) [Example 329], > 6.70. In the case of `COc1ccc(C(=O)NC[C@](O)(c2cc3c(c(-c4ccc(F)cc4)n2)OC[C@]3(C)C(N)=O)C(F)(F)F)cc1Cl` [Example 330], the negative logarithm of the EC50 (pEC50) is > 6.70.

Turning to `COc1ccc2c(C(=O)NC[C@](O)(c3cc4c(c(-c5ccc(F)cc5)n3)OC[C@]4(C)C(N)=O)C(F)(F)F)n[nH]c2c1` [Example 331], the pEC50 was < 6.70. The value for `COc1cc(OC)c2cc(C(=O)NC[C@](O)(c3cc4c(c(-c5ccc(F)cc5)n3)OC[C@]4(C)C(N)=O)C(F)(F)F)[nH]c2c1` [Example 332] was > 6.70; that for `Cn1cnc2cc(C(=O)NC[C@](O)(c3cc4c(c(-c5ccc(F)cc5)n3)OC[C@]4(C)C(N)=O)C(F)(F)F)ccc21` [Example 333] was < 6.70; that for `Cn1cnc2ccc(C(=O)NC[C@](O)(c3cc4c(c(-c5ccc(F)cc5)n3)OC[C@]4(C)C(N)=O)C(F)(F)F)cc21` [Example 334] was < 6.70.
